What was measured:
Assay type in all cases: in vivo
[1] = tested on: barnyardgrass (Echinochloa crus-galli, ECHCG); test: Pre-emerge test, greenhouse herbicide activity screening; conditions: for Pre-emerge herbicidal activity, phytotoxicity rating ECHCG: rating scale 0-100, 14 days after application
Method in brief: (§1)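 Visual ratings on a 0-100 scale (0 no damage, 100 all plants dead) were taken at 14 days after treatment. Rates of 15-1000 g ai/ha in acetone, 187 l/ha, were sprayed onto soil one day after planting (pre-emerge) or onto 2-3 leaf plants with 0.25% v/v surfactant (post-emerge).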

[2] = tested on: green foxtail (Setaria viridis, SETVI); test: as above; conditions: for Pre-emerge herbicidal activity, phytotoxicity rating SETVI: rating scale 0-100, 14 days after application
Method in brief: as §1

[3] = tested on: ivyleaf morningglory (Ipomoea hederacea, IPOHE); test: as above; conditions: for Pre-emerge herbicidal activity, phytotoxicity rating IPOHE: rating scale 0-100, 14 days after application
Method in brief: as §1

[4] = tested on: lambsquarters (Chenopodium album, CHEAL); test: as above; conditions: for Pre-emerge herbicidal activity, phytotoxicity rating CHEAL: rating scale 0-100, 14 days after application
Method in brief: as §1

[5] = tested on: large crabgrass (Digitaria sanguinalis, DIGSA); test: as above; conditions: for Pre-emerge herbicidal activity, phytotoxicity rating DIGSA: rating scale 0-100, 14 days after application
Method in brief: as §1

[6] = tested on: sicklepod (Cassia obtusifolia, CASOB); test: as above; conditions: for Pre-emerge herbicidal activity, phytotoxicity rating CASOB: rating scale 0-100, 14 days after application
Method in brief: as §1

[7] = tested on: velvetleaf (Abutilon theophrasti, ABUTH); test: as above; conditions: for Pre-emerge herbicidal activity, phytotoxicity rating ABUTH: rating scale 0-100, 14 days after application
Method in brief: as §1

[8] = tested on: barnyardgrass (Echinochloa crus-galli, ECHCG); test: Post-emerge test, greenhouse herbicide activity screening; conditions: Echinochloa crus-galli, post-emergence, 336 h, post-emerge, phytotoxicity rating 0-100 at 14 days after application, read-out: Post-emerge Herbicidal Activity ECHCG; for pest or weed control at 63 g/ha: 63 g ai/ha; for pest or weed control at 250 g/ha: 250 g ai/ha
Method in brief: (§2)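 Each test used a mechanized track sprayer delivering 187 l/ha of acetone solution at 15–1000 g ai/ha. Post-emerge foliage at 2–3 leaves was treated with added 0.25% v/v non-ionic surfactant and bottom-watered only. Injury was assessed on day 14, where 100 means total kill.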

[9] = tested on: green foxtail (Setaria viridis, SETVI); test: as above; conditions: Setaria viridis, post-emergence, 336 h, post-emerge, phytotoxicity rating 0-100 at 14 days after application, read-out: Post-emerge Herbicidal Activity SETVI; for pest or weed control at 63 g/ha: 63 g ai/ha; for pest or weed control at 250 g/ha: 250 g ai/ha
Method in brief: as §2

[10] = tested on: ivyleaf morningglory (Ipomoea hederacea, IPOHE); test: as above; conditions: Ipomoea, post-emergence, 336 h, post-emerge, phytotoxicity rating 0-100 at 14 days after application, read-out: Post-emerge Herbicidal Activity IPOHE; for pest or weed control at 63 g/ha: 63 g ai/ha; for pest or weed control at 250 g/ha: 250 g ai/ha
Method in brief: as §2

[11] = tested on: johnsongrass (Sorghum halepense, SORHA); test: as above; conditions: Sorghum halepense, post-emergence, 336 h, post-emerge, phytotoxicity rating 0-100 at 14 days after application, read-out: Post-emerge Herbicidal Activity SORHA
Method in brief: as §2

[12] = tested on: lambsquarters (Chenopodium album, CHEAL); test: as above; conditions: Chenopodium album, post-emergence, 336 h, post-emerge, phytotoxicity rating 0-100 at 14 days after application, read-out: Post-emerge Herbicidal Activity CHEAL; for pest or weed control at 63 g/ha: 63 g ai/ha; for pest or weed control at 250 g/ha: 250 g ai/ha
Method in brief: as §2

[13] = tested on: sicklepod (Cassia obtusifolia, CASOB); test: as above; conditions: Senna obtusifolia, post-emergence, 336 h, post-emerge, phytotoxicity rating 0-100 at 14 days after application, read-out: Post-emerge Herbicidal Activity CASOB; for pest or weed control at 63 g/ha: 63 g ai/ha; for pest or weed control at 250 g/ha: 250 g ai/ha
Method in brief: as §2

[14] = tested on: velvetleaf (Abutilon theophrasti, ABUTH); test: as above; conditions: Abutilon theophrasti, post-emergence, 336 h, post-emerge, phytotoxicity rating 0-100 at 14 days after application, read-out: Post-emerge Herbicidal Activity ABUTH; for pest or weed control at 63 g/ha: 63 g ai/ha; for pest or weed control at 250 g/ha: 250 g ai/ha
Method in brief: as §2

[15] = tested on: johnsongrass (Sorghum halepense, SORHA); test: Pre-emerge test, greenhouse herbicide activity screening; conditions: rating scale 0-100, 14 days after application
Method in brief: as §1

## Cc1nn(-c2c(F)cc(Cl)cc2NC(=O)c2ccc3ccccc3c2)c(=O)n1C(F)F [Compound 6-24]
[1]; Echinochloa crus-galli, pre-emergence, 336 h, pre-emerge, rate 63 g ai/ha, phytotoxicity rating 0-100 at 14 days after application, read-out: Pre-emerge Herbicidal Activity ECHCG
  pest or weed control at 63 g/ha: 0%
[1]; Echinochloa crus-galli, pre-emergence, 336 h, pre-emerge, rate 250 g ai/ha, phytotoxicity rating 0-100 at 14 days after application, read-out: Pre-emerge Herbicidal Activity ECHCG
  pest or weed control at 250 g/ha: 0%
[2]; Setaria viridis, pre-emergence, 336 h, pre-emerge, rate 63 g ai/ha, phytotoxicity rating 0-100 at 14 days after application, read-out: Pre-emerge Herbicidal Activity SETVI
  pest or weed control at 63 g/ha: 0%
[2]; Setaria viridis, pre-emergence, 336 h, pre-emerge, rate 250 g ai/ha, phytotoxicity rating 0-100 at 14 days after application, read-out: Pre-emerge Herbicidal Activity SETVI
  pest or weed control at 250 g/ha: 40%
[3]; Ipomoea, pre-emergence, 336 h, pre-emerge, rate 63 g ai/ha, phytotoxicity rating 0-100 at 14 days after application, read-out: Pre-emerge Herbicidal Activity IPOHE
  pest or weed control at 63 g/ha: 0%
[3]; Ipomoea, pre-emergence, 336 h, pre-emerge, rate 250 g ai/ha, phytotoxicity rating 0-100 at 14 days after application, read-out: Pre-emerge Herbicidal Activity IPOHE
  pest or weed control at 250 g/ha: 0%
[4]; Chenopodium album, pre-emergence, 336 h, pre-emerge, rate 63 g ai/ha, phytotoxicity rating 0-100 at 14 days after application, read-out: Pre-emerge Herbicidal Activity CHEAL
  pest or weed control at 63 g/ha: 30%
[4]; Chenopodium album, pre-emergence, 336 h, pre-emerge, rate 250 g ai/ha, phytotoxicity rating 0-100 at 14 days after application, read-out: Pre-emerge Herbicidal Activity CHEAL
  pest or weed control at 250 g/ha: 90%
[5]; Digitaria sanguinalis, pre-emergence, 336 h, pre-emerge, rate 63 g ai/ha, phytotoxicity rating 0-100 at 14 days after application, read-out: Pre-emerge Herbicidal Activity DIGSA
  pest or weed control at 63 g/ha: 0%
[5]; Digitaria sanguinalis, pre-emergence, 336 h, pre-emerge, rate 250 g ai/ha, phytotoxicity rating 0-100 at 14 days after application, read-out: Pre-emerge Herbicidal Activity DIGSA
  pest or weed control at 250 g/ha: 20%
[6]; Senna obtusifolia, pre-emergence, 336 h, pre-emerge, rate 63 g ai/ha, phytotoxicity rating 0-100 at 14 days after application, read-out: Pre-emerge Herbicidal Activity CASOB
  pest or weed control at 63 g/ha: 0%
[6]; Senna obtusifolia, pre-emergence, 336 h, pre-emerge, rate 250 g ai/ha, phytotoxicity rating 0-100 at 14 days after application, read-out: Pre-emerge Herbicidal Activity CASOB
  pest or weed control at 250 g/ha: 0%
[7]; Abutilon theophrasti, pre-emergence, 336 h, pre-emerge, rate 63 g ai/ha, phytotoxicity rating 0-100 at 14 days after application, read-out: Pre-emerge Herbicidal Activity ABUTH
  pest or weed control at 63 g/ha: 0%
[7]; Abutilon theophrasti, pre-emergence, 336 h, pre-emerge, rate 250 g ai/ha, phytotoxicity rating 0-100 at 14 days after application, read-out: Pre-emerge Herbicidal Activity ABUTH
  pest or weed control at 250 g/ha: 70%
[8]
  pest or weed control at 63 g/ha: 0%
  pest or weed control at 250 g/ha: 0%
[9]
  pest or weed control at 63 g/ha: 0%
  pest or weed control at 250 g/ha: 40%
[10]
  pest or weed control at 63 g/ha: 0%
  pest or weed control at 250 g/ha: 60%
[11]; 63 g ai/ha
  pest or weed control at 63 g/ha: 0%
[11]; 250 g ai/ha
  pest or weed control at 250 g/ha: 0%
[12]
  pest or weed control at 63 g/ha: 30%
  pest or weed control at 250 g/ha: 90%
[13]
  pest or weed control at 63 g/ha: 0%
  pest or weed control at 250 g/ha: 10%
[14]
  pest or weed control at 63 g/ha: 20%
  pest or weed control at 250 g/ha: 95%

## COc1c(Cl)cc(F)c(N2C(=O)c3ccccc3C2=O)c1NC(=O)c1ccc2ccccc2c1 [Compound 13-3, N-[4-chloro-6-fluoro-3-methoxy-2-(2-naphthoyl)aminophenyl]phthalimide]
[1]; 63 g ai/ha
  Pre-emerge herbicidal activity, phytotoxicity rating ECHCG: 0
[1]; 250 g ai/ha
  Pre-emerge herbicidal activity, phytotoxicity rating ECHCG: 10
[2]; 63 g ai/ha
  Pre-emerge herbicidal activity, phytotoxicity rating SETVI: 10
[2]; 250 g ai/ha
  Pre-emerge herbicidal activity, phytotoxicity rating SETVI: 40
[3]; 63 g ai/ha
  Pre-emerge herbicidal activity, phytotoxicity rating IPOHE: 0
[3]; 250 g ai/ha
  Pre-emerge herbicidal activity, phytotoxicity rating IPOHE: 0
[15]; 63 g ai/ha
  Pre-emerge herbicidal activity, phytotoxicity rating SORHA: 0
[15]; 250 g ai/ha
  Pre-emerge herbicidal activity, phytotoxicity rating SORHA: 10
[4]; 63 g ai/ha
  Pre-emerge herbicidal activity, phytotoxicity rating CHEAL: 90
[4]; 250 g ai/ha
  Pre-emerge herbicidal activity, phytotoxicity rating CHEAL: 100
[5]; 63 g ai/ha
  Pre-emerge herbicidal activity, phytotoxicity rating DIGSA: 0
[5]; 250 g ai/ha
  Pre-emerge herbicidal activity, phytotoxicity rating DIGSA: 30
[6]; 63 g ai/ha
  Pre-emerge herbicidal activity, phytotoxicity rating CASOB: 0
[6]; 250 g ai/ha
  Pre-emerge herbicidal activity, phytotoxicity rating CASOB: 30
[7]; 63 g ai/ha
  Pre-emerge herbicidal activity, phytotoxicity rating ABUTH: 0
[7]; 250 g ai/ha
  Pre-emerge herbicidal activity, phytotoxicity rating ABUTH: 20
[8]
  pest or weed control at 63 g/ha: 0%
  pest or weed control at 250 g/ha: 20%
[9]
  pest or weed control at 63 g/ha: 10%
  pest or weed control at 250 g/ha: 30%
[10]
  pest or weed control at 63 g/ha: 75%
  pest or weed control at 250 g/ha: 70%
[12]
  pest or weed control at 63 g/ha: 100%
  pest or weed control at 250 g/ha: 100%
[13]
  pest or weed control at 63 g/ha: 90%
  pest or weed control at 250 g/ha: 100%
[14]
  pest or weed control at 63 g/ha: 100%
  pest or weed control at 250 g/ha: 90%

Source: patent US6355799B1, “Substituted benzene compounds, process for their preparation, and herbicidal and defoliant compositions containing them” (ISK Americas Incorporated, priority 1997, dated 2002)
